The values that follow come from patent publication US8835375B2 (Applied Nanosystems B.V., priority 2006, dated 2014).

Entries after “also recorded” stand apart in the source; their conditions may differ. Read-outs that look alike come from different tables or passages of the source. Non-standard residues stand in square brackets, D forms with d. No end group written: not given here. Abu = CC[C@H](N)C(=O)O

Data set [1] in a line: proteolytic resistance in pig liver homogenate. It is filed as in vitro ADME. The note with it: pig, pig liver homogenate; for metabolised at 3 h, 0.2 μmol angiotensin/mg liver homogenate: read-out: Degradation after 3 h (%). How it is done:
(§1) Angiotensin (wildtype or cyclised analogs, chemically produced [Cyc 4-7] Ang(1-7) or biologically produced [Cyc 4-7] Ang(1-8)) was added to homogenates of pig liver (0.2 μmol angiotensin/mg liver homogenate), pig kidney (0.2 μmol angiotensin/mg kidney homogenate), pig pancreas (0.8 μmol angiotensin/mg pancreas homogenate) or plasma (1 μmol angiotensin/ml) and incubated at 37° C., pH 7.4 or pH 5, for different time periods up to 30 hours. The enzymatic reaction was stopped by 100° C. for 5 min. The remaining amount of intact angiotensin was determined by RP-HPLC with C18-column, mobile phase gradient and 214 nm detection.

Data set [2] is described as follows: proteolytic resistance in pig kidney homogenate. It is filed as in vitro ADME. The note with it: pig, pig kidney homogenate; for metabolised at 3 h, 0.2 μmol angiotensin/mg kidney homogenate: read-out: Degradation after 3 h (%). Here is the method:
as §1

The nature of data set [3]: proteolytic resistance in pig pancreas homogenate. It is filed as in vitro ADME. To be noted: for metabolised at 3 h, 0.8 μmol angiotensin/mg pancreas homogenate: read-out: Degradation after 3 h (%). Here is the method: as §1
A short description of data set [4]: proteolytic resistance in plasma. Type of data set: in vitro ADME. To be noted: pH 7.4, 37° C. Here is the method: as §1
Data set [5] deals with T1, Angiotensin Converting Enzyme (ACE) from Porcine kidney (Sus scrofa, UniProt F1RRW5).
T1 construct: Angiotensin Converting Enzyme (ACE) from Porcine kidney, SIGMA; purchased SIGMA; host or cells: porcine kidney (tissue-derived)
T1 sequence (F1RRW5 34-1309): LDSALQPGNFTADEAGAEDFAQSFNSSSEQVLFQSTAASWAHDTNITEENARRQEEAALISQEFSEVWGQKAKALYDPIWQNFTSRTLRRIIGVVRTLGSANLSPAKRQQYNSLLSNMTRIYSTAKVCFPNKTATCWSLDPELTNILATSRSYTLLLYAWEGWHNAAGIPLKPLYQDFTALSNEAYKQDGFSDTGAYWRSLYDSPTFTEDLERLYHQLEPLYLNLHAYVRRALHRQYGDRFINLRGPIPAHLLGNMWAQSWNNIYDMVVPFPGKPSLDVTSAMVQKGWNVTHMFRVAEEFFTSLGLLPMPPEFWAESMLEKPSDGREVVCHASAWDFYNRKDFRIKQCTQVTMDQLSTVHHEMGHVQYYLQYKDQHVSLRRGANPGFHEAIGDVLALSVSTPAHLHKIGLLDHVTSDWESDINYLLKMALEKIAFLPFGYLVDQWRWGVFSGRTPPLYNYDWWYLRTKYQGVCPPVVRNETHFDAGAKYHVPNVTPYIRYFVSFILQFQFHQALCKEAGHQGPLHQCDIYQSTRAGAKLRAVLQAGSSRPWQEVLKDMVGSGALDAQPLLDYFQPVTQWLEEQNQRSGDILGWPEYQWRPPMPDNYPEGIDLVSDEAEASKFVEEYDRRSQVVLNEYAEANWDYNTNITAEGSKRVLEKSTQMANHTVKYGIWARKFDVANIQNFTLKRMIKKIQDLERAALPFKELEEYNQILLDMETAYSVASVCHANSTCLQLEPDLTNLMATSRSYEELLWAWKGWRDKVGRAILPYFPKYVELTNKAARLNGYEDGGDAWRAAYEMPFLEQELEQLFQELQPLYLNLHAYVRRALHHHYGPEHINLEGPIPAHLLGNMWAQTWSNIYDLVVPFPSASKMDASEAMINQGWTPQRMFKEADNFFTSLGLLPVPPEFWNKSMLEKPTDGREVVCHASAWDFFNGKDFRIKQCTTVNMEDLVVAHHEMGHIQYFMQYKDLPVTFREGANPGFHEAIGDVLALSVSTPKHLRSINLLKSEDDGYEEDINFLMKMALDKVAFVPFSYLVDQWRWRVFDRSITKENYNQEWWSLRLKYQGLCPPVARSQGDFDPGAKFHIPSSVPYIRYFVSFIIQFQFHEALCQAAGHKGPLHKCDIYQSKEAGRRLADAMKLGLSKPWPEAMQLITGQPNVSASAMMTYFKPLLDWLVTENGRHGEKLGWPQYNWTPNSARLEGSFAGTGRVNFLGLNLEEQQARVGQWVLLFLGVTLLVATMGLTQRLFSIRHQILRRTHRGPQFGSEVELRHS
The data set is described as follows: resistance against angiotensin converting enzyme (ACE). The note with it: 50 μM peptide; for breakdown by ACE: 37° C., pH 8.3. It is filed as in vitro ADME. How it is done: Angiotensin Converting Enzyme (ACE) from Porcine kidney, SIGMA, was used at 4 nM final concentration, FIGS. 2A and 2B, or at 8 nM final concentration, FIGS. 2C and 2D. Natural Ang(1-7) was purchased from Bachem. All experiments were performed in duplicate in a waterbath at 37° C., incubations were performed in a buffer containing 100 mM Tris-HCl, 300 mm NaCl, 10 μM Zn, pH 8.3. Thioether-ring-containing angiotensin was obtained by bacterial production using L. lactis containing the nisin modification and transporter enzymes, NisBTC. Natural angiotensin(1-7), lanthionine-containing angiotensin(1-7) and methyllanthionine-containing angiotensin(1-7) were each used at a concentration of 50 μM. Both the lanthionine and the methyllanthionine variant had the thioether bridge between positions 4 and 7. The reaction was stopped by 100° C. for 5 minutes and put on ice. Samples were centrifuged for 10 min at 14000 rpm at 4° C. and quantified by RP-HPLC. Identification of the HPLC peaks was performed using Maldi TOF mass spectrometry. All points are the average of two measurements.

Data set [6] in a line: in vivo stability during continuous intravenous infusion in the rat (Maldi TOF of plasma). Further details: species or system Sprague Dawley rat. The note with it: i.v. infusion 1 mL/hour of 100 μM of each peptide together, sample taken at 120 min. Here is the method:
Rats (Sprague Dawley) were infused during 2 hours at a speed of 1 mL/hour with a solution containing simultaneously two compounds: both 100 μM natural Ang(1-7) as well as 100 μM methyllanthionine-containing angiotensin(1-7) with the thioether bridge between positions 4 and 7. Methyllanthionine-containing angiotensin(1-7) was prepared using L. lactis expressing lantibiotic enzymes as described in example 1. Maldi TOF analyses were performed on plasma samples as described in example 3. Undiluted sample (upper spectrum, mass peak of 826.06 Da at the arrow) and 100-fold diluted sample (lower spectrum, mass peak of 826.47 Da at the arrow) both gave a peak of the right mass, i.e. corresponding to intact methyllanthionine-containing angiotensin(1-7) (Theoretical mass M+H^+ equals 825.9758). […] In a control experiment mixing natural angiotensin(1-7) ex vivo with rat plasma, allowed subsequent detection of natural angiotensin(1-7) (not shown). Experimental details are mentioned in the text of example 3.
A male Sprague Dawley rat was kept under O2/Isoflurane (1.5-2%) narcosis throughout the study. A jugular vein catheter was applied and connected to a syringe containing 0.9% physiological salt solution. The syringe was mounted onto an infusion pump and the flow rate set to 1 mL/hour. […]

In the next data set the test system is angiotensinases. The data set can be described thus: in the body; angiotensinases located in red blood cells and the vascular beds of most tissues. To be noted: cited from earlier work.
The next data set deals with ACE. The data set can be described thus: In vivo. To be noted: cited from earlier work.
Data set [7] relates to Angiotensin Converting Enzyme (ACE). The data set can be described thus: Angiotensin Converting Enzyme (ACE) from Porcine kidney, SIGMA, 4 nM in 100 mM Tris-HCl, 300 mm NaCl, 10 μM Zn, pH 8.3. The note with it: 37° C., up to 26 hour.
The test system is the same in data set [8]. The data set can be described thus: Angiotensin Converting Enzyme (ACE) from Porcine kidney, SIGMA, 8 nM in 100 mM Tris-HCl, 300 mm NaCl, 10 μM Zn, pH 8.3. To be noted: 37° C.
The conditions of data set [9]: cited from earlier work.
Data set [10] concerns angiotensin-I converting enzyme (ACE). The data set can be described thus: angiotensin-I converting enzyme (ACE) of the vascular endothelium. The note with it: cited from earlier work.
Data set [11] is described as follows: plasma from rat under continuous intravenous infusion (1 mL/hour). The note with it: Sprague Dawley rat, up to 120 min.
Where [12] appears, read: pig, pig pancreas homogenate, pH 7.4, 37° C.

For the molecule `CC[C@H](C)[C@H](NC(=O)[C@H](Cc1ccc(O)cc1)NC(=O)[C@@H](NC(=O)[C@H](CCCNC(=N)N)NC(=O)[C@@H](N)CC(=O)O)C(C)C)C(=O)N[C@@H](Cc1c[nH]cn1)C(=O)N1CCC[C@H]1C(=O)O` [Ang(1-7), DRVYIHP, reference compound], the half-life at 0.2 μmol/mg liver homogenate was found to be 153 min in data set [1] (pH 5.0, 37° C.) and 32 min in [1] (pH 7.4, 37° C.). Moreover, the metabolised at 3 h, 0.2 μmol angiotensin/mg liver homogenate in data set [1] (pH 5.0, 37° C.) was 56%; in [1] (pH 7.4, 37° C.), 100%. The half-life at 0.2 μmol/mg kidney homogenate came to 28 min in [2] (pH 5.0, 37° C.) and 5 min in data set [2] (pH 7.4, 37° C.). Moreover, the metabolised at 3 h, 0.2 μmol angiotensin/mg kidney homogenate in data set [2] (pH 5.0, 37° C.) turned out to be 98%; in [2] (pH 7.4, 37° C.), 100%. Besides, in data set [3] (pH 5.0, 37° C.), the “Half-life (min)” value is “∞”. Also, the metabolised at 3 h, 0.8 μmol angiotensin/mg pancreas homogenate in [3] (pig, pig pancreas homogenate, pH 5.0, 37° C.) stood at 16%; in data set [3] (setting [12]), 81%. The molecule further gave a half-life at 0.8 μmol/mg pancreas homogenate in [3] (setting [12]) of 81 min. In data set [4], this molecule came in with a half-life at 1 μmol/ml of 166 min. Besides, the metabolised at 3 h, 1 μmol/ml in [4] (read-out: Degradation after 3 h (%)) was 55%. Further, the “formation of Ang(1-5) by incubation with ACE” value is reported as “resulted in angiotensin(1-5) formation” in [5] (4 nM ACE) and “emergence of angiotensin(1-5)” in [5] (8 nM ACE). The “breakdown by ACE” value in [5] (4 nM ACE, 26 hour incubation) is reported as “completely broken down”; in data set [5] (8 nM ACE) it was “rapidly broken down”. Moreover, in data set [6], the “detection of intact peptide in plasma by Maldi TOF” value was “not detected at all”.
Turning to Asp-Arg-Val-Tyr-Ile-His-Pro-Phe, the fragment found result with angiotensinases is “angiotensin III (Arg-Val-Tyr-Ile-His-Pro-Phe; or Ang(2-8)”.
On to DRVYIHP, for which the cleaved bond entry in the data set on ACE is on record as “I5-H6”; in data set [7] it was “I5-H6, major”; in [8], “I5-H6, major”.
Consider DRVYIHPFHL, for which the fragment found entry in [9] is “Ang(1-9); also recorded: Ang(1-7); also recorded: Ang III (Ang(2-8)); also recorded: Ang IV (Ang(3-8))”. In addition, in data set [10], the cleaved bond result was “Phe8-His9”.
For DRV[Abu]IHA, the not cleaved entry in data set [11] is given as “intact peptide detected in the sample taken at 120 min; very stable”; in [7], “no degradation after 26 hour”; in data set [8], “no breakdown observed”.

For orientation: half-life means how long it takes for the measured level to halve. Read a low half-life as rapid decline.
